Data as given in EP0908457B1, “3-(1,2-benzisothiazol- and isoxazol-5-Y1)-2,4(1H,3H)-pyrimidinedione or thione and 3-(1,2-benzisothiazol- and isoxazol-5-y1)-4(3H)-pyrimidinone or thione herbicidal agents” (BASF AKTIENGESELLSCHAFT, priority 1997, dated 1999).

Key:
[1] = tested on: Echinochloa oryzoides (Ard.) Fritsch.; experiment: Preemergence weed control under flooded paddy conditions, ECHORC (Watergrass (Calif.)); type: in vivo; settings: preemergence weeds, flooded paddy; for herbicidal effect rating, ECHORC: rated three to four weeks after treatment; for ECHORC: herbicidal effect rating 0-9, three to four weeks after treatment; on herbicidal effect rating, ECHORC: meaning of each grade not given here
[2] = tested on: Cyperus iria; experiment: Preemergence weed control under flooded paddy conditions, CYPIR (Rice Flatsedge); type: in vivo; settings: preemergence weeds, flooded paddy; for herbicidal effect rating, CYPIR: rated three to four weeks after treatment; for CYPIR: herbicidal effect rating 0-9, three to four weeks after treatment; on herbicidal effect rating, CYPIR: meaning of each grade not given here
[3] = tested on: Cyperus serotinus, Rottb.; experiment: Preemergence weed control under flooded paddy conditions, CYPSE (Flatsedge); type: in vivo; settings: preemergence weeds; for herbicidal effect rating, CYPSE: rated three to four weeks after treatment; for CYPSE: herbicidal effect rating 0-9, three to four weeks after treatment; on herbicidal effect rating, CYPSE: meaning of each grade not given here
[4] = tested on: Monochoria vaginalis, Presl.; experiment: Preemergence weed control under flooded paddy conditions, MOOVA (Monochoria); type: in vivo; settings: preemergence weeds, flooded paddy; for herbicidal effect rating, MOOVA: rated three to four weeks after treatment; for MOOVA: herbicidal effect rating 0-9, three to four weeks after treatment; on herbicidal effect rating, MOOVA: meaning of each grade not given here
[5] = tested on: Sagittaria pygmaea, L.; experiment: Preemergence weed control under flooded paddy conditions, SAGPY (Arrowhead (Pygmaea)); type: in vivo; settings: preemergence weeds, flooded paddy; for herbicidal effect rating, SAGPY: rated three to four weeks after treatment; for SAGPY: herbicidal effect rating 0-9, three to four weeks after treatment; on herbicidal effect rating, SAGPY: meaning of each grade not given here
[6] = tested on: Echinochloa oryzoides (Ard.) Fritsch.; experiment: Postemergence weed control under flooded paddy conditions, ECHORC (Watergrass (Calif.)); type: in vivo; settings: rated three to four weeks after treatment
[7] = tested on: Cyperus iria; experiment: Postemergence weed control under flooded paddy conditions, CYPIR (Rice Flatsedge); type: in vivo; settings: rated three to four weeks after treatment
[8] = tested on: Cyperus serotinus, Rottb.; experiment: Postemergence weed control under flooded paddy conditions, CYPSE (Flatsedge); type: in vivo; settings: rated three to four weeks after treatment
[9] = tested on: Monochoria vaginalis, Presl.; experiment: Postemergence weed control under flooded paddy conditions, MOOVA (Monochoria); type: in vivo; settings: rated three to four weeks after treatment
[10] = tested on: Sagittaria pygmaea, L.; experiment: Postemergence weed control under flooded paddy conditions, SAGPY (Arrowhead (Pygmaea)); type: in vivo; settings: rated three to four weeks after treatment
[11] = tested on: Oryza sativa, (L.) Tebonnet; experiment: Rice tolerance to post-transplant applications under flooded paddy conditions (Example 187), ORYSAT (Rice, Tebonnet); settings: for herbicidal effect rating ORYSAT: rated three to four weeks after treatment; for ORYSAT: herbicidal effect rating 0-9, three to four weeks after treatment; on herbicidal effect rating, ORYSAT: meaning of each grade not given here
[12] = tested on: Oryza sativa, (L.) Tebonnet; experiment: Rice tolerance to post-transplant applications under flooded paddy conditions (Example 188), ORYSAT (Rice, Tebonnet); settings: rated three to four weeks after treatment

CC(C)Oc1cccc(-c2nsc3ccc(-n4c(=O)cc(C(F)(F)F)n(C)c4=O)cc23)c1 [Example 328, 2,4(1H,3H)-Pyrimidinedione, 3-[3-(m-isopropoxyphenyl)-1,2-benzisothiazol-5-yl]-1-methyl-6-(trifluoromethyl)-]
herbicidal effect rating, ECHORC ([1]; Rate 0.0320 kg/ha): 9.0 | herbicidal effect rating, ECHORC ([1]; Rate 0.0620 kg/ha): 9.0 | herbicidal effect rating, ECHORC ([1]; Rate 0.1250 kg/ha): 9.0 | herbicidal effect rating, ECHORC ([1]; Rate 0.2500 kg/ha): 9.0 | herbicidal effect rating, CYPIR ([2]; Rate 0.0320 kg/ha): 9.0 | herbicidal effect rating, CYPIR ([2]; Rate 0.0620 kg/ha): 9.0 | herbicidal effect rating, CYPIR ([2]; Rate 0.1250 kg/ha): 9.0 | herbicidal effect rating, CYPIR ([2]; Rate 0.2500 kg/ha): 9.0 | herbicidal effect rating, CYPSE ([3]; Rate 0.0320 kg/ha): 6.0 | herbicidal effect rating, CYPSE ([3]; Rate 0.0620 kg/ha): 6.0 | herbicidal effect rating, CYPSE ([3]; Rate 0.1250 kg/ha): 7.5 | herbicidal effect rating, CYPSE ([3]; Rate 0.2500 kg/ha): 9.0 | herbicidal effect rating, MOOVA ([4]; Rate 0.0320 kg/ha): 9.0 | herbicidal effect rating, MOOVA ([4]; Rate 0.0620 kg/ha): 9.0 | herbicidal effect rating, MOOVA ([4]; Rate 0.1250 kg/ha): 9.0 | herbicidal effect rating, MOOVA ([4]; Rate 0.2500 kg/ha): 9.0 | herbicidal effect rating, SAGPY ([5]; Rate 0.0320 kg/ha): 2.5 | herbicidal effect rating, SAGPY ([5]; Rate 0.0620 kg/ha): 3.0 | herbicidal effect rating, SAGPY ([5]; Rate 0.1250 kg/ha): 4.5 | herbicidal effect rating, SAGPY ([5]; Rate 0.2500 kg/ha): 4.5 | herbicidal effect rating, ECHORC ([6]; Rate 0.0320 kg/ha): 7.0 | herbicidal effect rating, ECHORC ([6]; Rate 0.0620 kg/ha): 9.0 | herbicidal effect rating, ECHORC ([6]; Rate 0.1250 kg/ha): 9.0 | herbicidal effect rating, ECHORC ([6]; Rate 0.2500 kg/ha): 9.0 | herbicidal effect rating, CYPIR ([7]; Rate 0.0320 kg/ha): 9.0 | herbicidal effect rating, CYPIR ([7]; Rate 0.0620 kg/ha): 9.0 | herbicidal effect rating, CYPIR ([7]; Rate 0.1250 kg/ha): 9.0 | herbicidal effect rating, CYPIR ([7]; Rate 0.2500 kg/ha): 9.0 | herbicidal effect rating, CYPSE ([8]; Rate 0.0320 kg/ha): 0.0 | herbicidal effect rating, CYPSE ([8]; Rate 0.0620 kg/ha): 2.0 | herbicidal effect rating, CYPSE ([8]; Rate 0.1250 kg/ha): 6.0 | herbicidal effect rating, CYPSE ([8]; Rate 0.2500 kg/ha): 6.0 | herbicidal effect rating, MOOVA ([9]; Rate 0.0320 kg/ha): 9.0 | herbicidal effect rating, MOOVA ([9]; Rate 0.0620 kg/ha): 9.0 | herbicidal effect rating, MOOVA ([9]; Rate 0.1250 kg/ha): 9.0 | herbicidal effect rating, MOOVA ([9]; Rate 0.2500 kg/ha): 9.0 | herbicidal effect rating, SAGPY ([10]; Rate 0.0320 kg/ha): 0.0 | herbicidal effect rating, SAGPY ([10]; Rate 0.0620 kg/ha): 0.0 | herbicidal effect rating, SAGPY ([10]; Rate 0.1250 kg/ha): 2.0 | herbicidal effect rating, SAGPY ([10]; Rate 0.2500 kg/ha): 6.0 | herbicidal effect rating ORYSAT ([11]; Rate 0.0320 kg/ha): 2.0 | herbicidal effect rating ORYSAT ([11]; Rate 0.0620 kg/ha): 3.0 | herbicidal effect rating ORYSAT ([11]; Rate 0.1250 kg/ha): 4.0 | herbicidal effect rating ORYSAT ([11]; Rate 0.2500 kg/ha): 4.5 | herbicidal effect rating, ORYSAT (rice tolerance) ([12]; Rate 0.0320 kg/ha): 2.0 | herbicidal effect rating, ORYSAT (rice tolerance) ([12]; Rate 0.0620 kg/ha): 4.0 | herbicidal effect rating, ORYSAT (rice tolerance) ([12]; Rate 0.1250 kg/ha): 4.0 | herbicidal effect rating, ORYSAT (rice tolerance) ([12]; Rate 0.2500 kg/ha): 4.0

COc1cc(C)c(I)cc1-c1nsc2ccc(-n3c(=O)cc(C(F)(F)F)n(C)c3=O)cc12 [Example 429, 2,4(1H,3H)-Pyrimidinedione, 3-[3-(5-iodo-2-methoxy-p-tolyl)-1,2-benzisothiazol-5-yl]-1-methyl-6-(trifluoromethyl)-]
ECHORC ([1]; 0.0320 kg/ha): 9.0 | ECHORC ([1]; 0.0620 kg/ha): 9.0 | ECHORC ([1]; 0.1250 kg/ha): 9.0 | ECHORC ([1]; 0.2500 kg/ha): 9.0 | CYPIR ([2]; 0.0320 kg/ha): 7.3 | CYPIR ([2]; 0.0620 kg/ha): 7.7 | CYPIR ([2]; 0.1250 kg/ha): 8.3 | CYPIR ([2]; 0.2500 kg/ha): 9.0 | CYPSE ([3]; 0.0320 kg/ha): 0.0 | CYPSE ([3]; 0.0620 kg/ha): 1.0 | CYPSE ([3]; 0.1250 kg/ha): 1.0 | CYPSE ([3]; 0.2500 kg/ha): 1.0 | MOOVA ([4]; 0.0320 kg/ha): 9.0 | MOOVA ([4]; 0.0620 kg/ha): 9.0 | MOOVA ([4]; 0.1250 kg/ha): 9.0 | MOOVA ([4]; 0.2500 kg/ha): 9.0 | SAGPY ([5]; 0.0320 kg/ha): 2.0 | SAGPY ([5]; 0.0620 kg/ha): 2.3 | SAGPY ([5]; 0.1250 kg/ha): 2.3 | SAGPY ([5]; 0.2500 kg/ha): 3.0 | herbicidal effect rating, ECHORC ([6]; Rate 0.0320 kg/ha): 4.0 | herbicidal effect rating, ECHORC ([6]; Rate 0.0620 kg/ha): 6.0 | herbicidal effect rating, ECHORC ([6]; Rate 0.1250 kg/ha): 6.0 | herbicidal effect rating, ECHORC ([6]; Rate 0.2500 kg/ha): 9.0 | herbicidal effect rating, CYPIR ([7]; Rate 0.0320 kg/ha): 4.0 | herbicidal effect rating, CYPIR ([7]; Rate 0.0620 kg/ha): 6.0 | herbicidal effect rating, CYPIR ([7]; Rate 0.1250 kg/ha): 7.0 | herbicidal effect rating, CYPIR ([7]; Rate 0.2500 kg/ha): 9.0 | herbicidal effect rating, CYPSE ([8]; Rate 0.0320 kg/ha): 0.0 | herbicidal effect rating, CYPSE ([8]; Rate 0.0620 kg/ha): 0.0 | herbicidal effect rating, CYPSE ([8]; Rate 0.1250 kg/ha): 0.0 | herbicidal effect rating, CYPSE ([8]; Rate 0.2500 kg/ha): 0.0 | herbicidal effect rating, MOOVA ([9]; Rate 0.0320 kg/ha): 2.0 | herbicidal effect rating, MOOVA ([9]; Rate 0.0620 kg/ha): 4.0 | herbicidal effect rating, MOOVA ([9]; Rate 0.1250 kg/ha): 7.0 | herbicidal effect rating, MOOVA ([9]; Rate 0.2500 kg/ha): 7.0 | herbicidal effect rating, SAGPY ([10]; Rate 0.0320 kg/ha): 0.0 | herbicidal effect rating, SAGPY ([10]; Rate 0.0620 kg/ha): 0.0 | herbicidal effect rating, SAGPY ([10]; Rate 0.1250 kg/ha): 0.0 | herbicidal effect rating, SAGPY ([10]; Rate 0.2500 kg/ha): 0.0 | ORYSAT ([11]; 0.0320 kg/ha): 1.3 | ORYSAT ([11]; 0.0620 kg/ha): 2.0 | ORYSAT ([11]; 0.1250 kg/ha): 2.3 | ORYSAT ([11]; 0.2500 kg/ha): 3.0 | herbicidal effect rating, ORYSAT (rice tolerance) ([12]; Rate 0.0320 kg/ha): 1.0 | herbicidal effect rating, ORYSAT (rice tolerance) ([12]; Rate 0.0620 kg/ha): 1.0 | herbicidal effect rating, ORYSAT (rice tolerance) ([12]; Rate 0.1250 kg/ha): 2.0 | herbicidal effect rating, ORYSAT (rice tolerance) ([12]; Rate 0.2500 kg/ha): 2.0
